Our source for the MIC and MTD50 values is ChEMBL document CHEMBL1132675, “New pyrrole derivatives as antimycobacterial agents analogs of BM212” (1999).

Values after ≈ are worked out from the molar mass of the structure shown. Active and inactive are the calls of the source. The calls are words filed in the database; no cut-off is given here.

One experiment relates to Mycobacterium marinum. Put plainly: In vitro antibacterial activity against Mycobacterium marinum 6423. Format: functional.
For another experiment, the system named is Candida. The experiment is described as follows: Compound was tested for activity against Candida sp; Inactive. The format is functional, organism-based.
Experiment [1] has as its system Mycobacterium gordonae. The experiment is described as follows: In vitro antibacterial activity against Mycobacterium gordonae 6427. Format: functional.
In the next experiment the test system is Vero. The experiment is described as follows: In vitro cytotoxicity against vero cells. The format is functional, Chlorocebus sabaeus.
Experiment [2] has as its system Mycobacterium tuberculosis. The experiment is described as follows: In vitro antibacterial activity against Mycobacterium tuberculosis 103471. Format: functional.
The subject of a further experiment is Mycobacterium avium. Put plainly: In vitro antibacterial activity against Mycobacterium avium 103317. The format is functional.
The test system of a further experiment is Candida albicans. Put plainly: Compound was tested for activity against Candida albicans; Inactive. The format is functional, organism-based.
Experiment [3] has as its system Mycolicibacterium smegmatis. The experiment is described as follows: In vitro antibacterial activity against Mycobacterium smegmatis 103599. Format: functional.
Experiment [4] has as its system Mycobacterium gordonae. Put plainly: In vitro antibacterial activity agains Mycobacterium gordonae 6427. Format: functional.

In general, MIC refers to the least concentration at which growth counts as inhibited. Take `Cc1c(CN2CCN(C)CC2)cc(-c2ccc(Cl)cc2)n1-c1ccccc1`: the minimal inhibitory concentration (MIC) against Mycobacterium marinum was 16 µg/mL (≈ 42.1 µM); with Mycobacterium gordonae [1] it was 16 µg/mL (≈ 42.1 µM); in [2], 4 µg/mL (≈ 10.5 µM); with Mycobacterium avium, 16 µg/mL (≈ 42.1 µM); in experiment [3], 8 µg/mL (≈ 21.1 µM). The MIC result with Candida and in the experiment on Candida albicans was “inactive” each time. This compound had an MTD50 in the experiment with Vero of 4 µg/mL.
Consider `NNC(=O)c1ccncc1` [ISONIAZID], for which the MIC against Mycobacterium marinum stood at 16 µg/mL (≈ 117 µM); in the experiment with Mycobacterium gordonae [1], 32 µg/mL (≈ 233 µM); in [2] it was 0.25 µg/mL (≈ 1.82 µM); in the experiment on Mycobacterium avium it was 32 µg/mL (≈ 233 µM); in experiment [3] it was 64 µg/mL (≈ 467 µM). In the experiment on Vero, this compound displayed an MTD50 of 32 µg/mL.
Consider `CN[C@@H]1[C@H](O[C@H]2[C@H](O[C@H]3[C@H](O)[C@@H](O)[C@H](N=C(N)N)[C@@H](O)[C@@H]3N=C(N)N)O[C@@H](C)[C@]2(O)C=O)O[C@@H](CO)[C@H](O)[C@H]1O` [STREPTOMYCIN], for which the minimum inhibitory concentration (MIC) with Mycobacterium marinum came out at 32 µg/mL (≈ 55 µM); with Mycobacterium gordonae [1], 16 µg/mL (≈ 27.5 µM); in experiment [2] it was 0.5 µg/mL (≈ 0.86 µM); with Mycobacterium avium, 8 µg/mL (≈ 13.8 µM); in [3], 8 µg/mL (≈ 13.8 µM). Further, in the experiment on Vero, the MTD50 is more than 64 µg/mL.
In the case of `Cc1c(CN2CCN(C)CC2)cc(-c2ccccc2)n1-c1ccc(Cl)cc1`, the minimum inhibitory concentration (MIC) in the experiment with Mycobacterium marinum was found to be 1 µg/mL (≈ 2.63 µM); in the experiment with Mycobacterium gordonae [1], 8 µg/mL (≈ 21.1 µM); in experiment [2], 4 µg/mL (≈ 10.5 µM); against Mycobacterium avium it was 16 µg/mL (≈ 42.1 µM); in experiment [3] it was 8 µg/mL (≈ 21.1 µM). For the same compound, the MIC entry in the experiment on Candida and with Candida albicans was “inactive” each time. Also, the MTD50 in the experiment on Vero worked out at 4 µg/mL.
For the compound `Cc1c(CN2CCN(C)CC2)cc(-c2ccc(Cl)cc2)n1-c1ccc(Cl)cc1`, the MIC in the experiment with Mycobacterium gordonae [4] was more than 100 µg/mL; with Mycobacterium marinum it was 100 µg/mL (≈ 241 µM); in [2], 0.7 µg/mL (≈ 1.69 µM); against Mycobacterium avium it was 0.4 µg/mL (≈ 0.965 µM); in [3], 25 µg/mL (≈ 60.3 µM). In the experiment on Vero, this compound returned an MTD50 of 4 µg/mL.
For `Cc1c(CN2CCSCC2)cc(-c2ccccc2)n1-c1ccc(Cl)cc1`, the MIC against Mycobacterium marinum is 8 µg/mL (≈ 20.9 µM); against Mycobacterium gordonae [1], more than 16 µg/mL; in experiment [2] it was 2 µg/mL (≈ 5.22 µM); against Mycobacterium avium, 16 µg/mL (≈ 41.8 µM); in experiment [3] it was 16 µg/mL (≈ 41.8 µM). For the same compound, the MIC result in the experiment on Candida and with Candida albicans was “inactive” throughout. The MTD50 with Vero was 8 µg/mL.
Take `CO[C@H]1/C=C/O[C@@]2(C)Oc3c(C)c(O)c4c(O)c(c(/C=N/N5CCN(C)CC5)c(O)c4c3C2=O)NC(=O)/C(C)=C\C=C\[C@H](C)[C@H](O)[C@@H](C)[C@@H](O)[C@@H](C)[C@H](OC(C)=O)[C@@H]1C` [RIFAMPIN]: the MIC in the experiment with Mycobacterium marinum turned out to be 0.6 µg/mL (≈ 0.729 µM); in the experiment on Mycobacterium gordonae [1], 0.6 µg/mL (≈ 0.729 µM); in [2] it was 0.3 µg/mL (≈ 0.365 µM); with Mycobacterium avium, 0.3 µg/mL (≈ 0.365 µM); in [3], 32 µg/mL (≈ 38.9 µM). In addition, the MTD50 with Vero is 64 µg/mL.
Turning to `Cc1c(CN2CCSCC2)cc(-c2ccc(Cl)cc2)n1-c1ccccc1`, the minimum inhibitory concentration (MIC) against Mycobacterium marinum is more than 16 µg/mL; against Mycobacterium gordonae [1] it was more than 16 µg/mL; in experiment [2], 2 µg/mL (≈ 5.22 µM); in the experiment with Mycobacterium avium it was more than 16 µg/mL; in experiment [3], more than 16 µg/mL. Further, the MIC entry in the experiment on Candida and in the experiment on Candida albicans was “inactive” each time. In the experiment on Vero, this compound registered an MTD50 of 4 µg/mL.
`Cc1c(CN2CCSCC2)cc(-c2ccc(Cl)cc2)n1-c1ccc(Cl)cc1`: the MIC against Mycobacterium marinum is more than 16 µg/mL; in the experiment with Mycobacterium gordonae [1], more than 16 µg/mL; in experiment [2], 4 µg/mL (≈ 9.58 µM); with Mycobacterium avium, more than 16 µg/mL; in experiment [3] it was more than 16 µg/mL. Also, the MIC result in the experiment on Candida and in the experiment on Candida albicans was “inactive” each time. The MTD50 in the experiment on Vero was found to be 32 µg/mL.
